The values that follow come from patent US8703784B2, “Substituted pyrazolo[1,5-a]pyrido[3.2-e]pyrimidin-6-one inhibitors of mammalian target of rapamycin” (Merck Sharp & Dohme Corp., priority 2010, dated 2014).

pIC50: −log10 of the molar value.

The test addresses mTOR enzyme (Homo sapiens, UniProt P42345). Kind of test: mTOR Kinase Assay. The following applies: 5 μM ATP, 0.1 μM GSTS6K substrate. It counts as biochemical. As to the method: The mTOR assay buffer contains 10 mM hepes (pH 7.4), 50 mM NaCl, 100 μg/ml BSA, 50 mM B-glycerophosphate, 10 mM MnCl2 and 0.5 mM DTT. 20 ng of mTOR enzyme is preincubated with the compound for 10 minutes. 5 μM ATP and 0.1 μM GSTS6K is added. The reaction is incubated for one hour at 30° C. Anti phospho p70S6K (about 1.7 ng/well) and anti GSTXL665 (1:1 Ratio with the substrate GSTS6K) are added after incubating. The plates are read at least 2 hours after adding the anti phospho p70S6K and the anti GSTXL665.
Dose-response curves were plotted from inhibition data generated, each in duplicate, from 8 point serial dilutions of inhibitory compounds. Concentration of compound was plotted against % kinase activity, calculated by CPM of treated samples divided by CPM of untreated samples. To generate IC50 values, the dose-response curves were then fitted to a standard sigmoidal curve and IC50 values were derived by nonlinear regression analysis.
The pIC50 is the negative decadic logarithm of the IC50, by convention in mol/L. The low end stands for a high IC50, the high end for a low IC50. For the compound `C[C@@H]1CN(c2nc3c(-c4ccc(-c5ccccc5)nc4)cnn3c3c2C(=O)CCN3)C[C@H](C)O1` [Example 20, 5-((2R,6S)-2,6-dimethylmorpholino)-3-(6-phenylpyridin-3-yl)-8,9-dihydropyrazolo[1,5-a]pyrido[3,2-e]pyrimidin-6(7H)-one], the pIC50 was 7.00 to 8.00.
Then `O=C1CCNc2c1c(N1CCOCC1)nc1c(-c3cnc4ccccc4c3)cnn21` [Example 19, 5-morpholino-3-(quinolin-3-yl)-8,9-dihydropyrazolo[1,5-a]pyrido[3,2-e]pyrimidin-6(7H)-one], with 7.00 to 8.00.
Next, `CC(CO)(CO)C(=O)N1CCC(c2nc3c(-c4ccc(-c5ccccc5)nc4)cnn3c3c2C(=O)CCN3)CC1` [Example 18]: greater than 8.00.
Then `O=C1CCNc2c1c(C1CC3CCC(C1)N3C(=O)c1nnc[nH]1)nc1c(-c3ccc(-c4ccccc4)nc3)cnn21` (stereo not drawn) [Example 1, 5-(8-(4H-1,2,4-triazole-3-carbonyl)-8-azabicyclo[3.2.1]octan-3-yl)-3-(6-phenylpyridin-3-yl)-8,9-dihydropyrazolo[1,5-a]pyrido[3,2-e]pyrimidin-6(7H)-one], with greater than 8.00.
In turn, `Cn1ccc(-c2ccc(-c3cnn4c5c(c(C6CC7CCC(C6)N7C(=O)c6nnc[nH]6)nc34)C(=O)CCN5)cn2)n1` (stereo not drawn) [Example 4] gave a pIC50 greater than 8.00.
Next, `O=C1CCNc2c1c(C1C[C@H]3COC[C@@H](C1)N3C(=O)c1nc[nH]n1)nc1c(-c3ccc(-c4ccccc4)nc3)cnn21` (stereo partly drawn) [Example 27, 5-((1R,5S)-9-(1H-1,2,4-triazole-3-carbonyl)-3-oxa-9-azabicyclo[3.3.1]nonan-7-yl)-3-(6-phenylpyridin-3-yl)-8,9-dihydropyrazolo[1,5-a]pyrido[3,2-e]pyrimidin-6(7H)-one]: greater than 8.00.
Then “(1r,4r)-1-(2-methoxyethoxy)-4-(3-(6-(1-methyl-1H-pyrazol-3-yl)pyridin-3-yl)-6-oxo-6,7,8,9-tetrahydropyrazolo[1,5-a]pyrido[3,2-e]pyrimidin-5-yl)cyclohexanecarboxylic acid [Example 26]”, with greater than 8.00; and `COCCO[C@]1(C(=O)O)CC[C@@H](c2nc3c(-c4cnn(-c5ccccc5)c4)cnn3c3c2C(=O)CCN3)CC1` [Example 25, (1r,4r)-1-(2-methoxyethoxy)-4-(6-oxo-3-(1-phenyl-1H-pyrazol-4-yl)-6,7,8,9-tetrahydropyrazolo[1,5-a]pyrido[3,2-e]pyrimidin-5-yl)cyclohexanecarboxylic acid], with greater than 8.00; and `O=C(c1nnc[nH]1)N1C2CCC1CC(c1nc3c(-c4ccc(-c5ccccc5)nc4)cnn3c3[nH]ccc(=O)c13)C2` (stereo not drawn) [Example 2, 5-(8-(4H-1,2,4-triazole-3-carbonyl)-8-azabicyclo[3.2.1]octan-3-yl)-3-(6-phenylpyridin-3-yl)pyrazolo[1,5-a]pyrido[3,2-e]pyrimidin-6(9H)-one], with greater than 8.00.
Next, `Cn1ccc(-c2ccc(-c3cnn4c5c(c(C6CC7CCC(C6)N7C(=O)C(C)(CO)CO)nc34)C(=O)CCN5)cn2)n1` (stereo not drawn) [Example 5]: greater than 8.00; `O=C1CCNc2c1c(C1CC3CCC(C1)N3C(=O)c1nnc[nH]1)nc1c(-c3ccc(-c4ccccn4)nc3)cnn21` (stereo not drawn) [Example 12]: greater than 8.00; `O=C1CCNc2c1c(C1CCS(=O)(=O)CC1)nc1c(-c3ccc(-c4ccccc4)nc3)cnn21` [Example 23, 3-(6-phenylpyridin-3-yl)-5-(tetrahydro-1,1-dioxido-2H-thiopyran-4-yl)-8,9-dihydropyrazolo[1,5-a]pyrido[3,2-e]pyrimidin-6(7H)-one]: greater than 8.00.
`COc1ccc(-c2ccc(-c3cnn4c5c(c(C6CC7CCC(C6)N7C(=O)CO)nc34)C(=O)CCN5)cn2)cc1F` (stereo not drawn) [Example 6] gave a negative logarithm of the IC50 (pIC50) greater than 8.00.
Next, `O=C1CCNc2c1c(N1CCS(=O)(=O)CC1)nc1c(-c3ccc(-c4ccccc4)nc3)cnn21` [Example 22]: greater than 8.00; `O=C1CCNc2c1c(C1CCN(C(=O)c3nnc[nH]3)CC1)nc1c(-c3ccc(-c4ccccc4)nc3)cnn21` [Example 15, 5-(1-(4H-1,2,4-triazole-3-carbonyl)piperidin-4-yl)-3-(6-phenylpyridin-3-yl)-8,9-dihydropyrazolo[1,5-a]pyrido[3,2-e]pyrimidin-6(7H)-one]: greater than 8.00.
Then `C[C@@H](O)C(=O)N1CCC(c2nc3c(-c4ccc(-c5ccccc5)nc4)cnn3c3c2C(=O)CCN3)CC1` [Example 17], with greater than 8.00; and `O=C1CCNc2c1c(C1CCN(C(=O)CO)CC1)nc1c(-c3ccc(-c4ccccc4)nc3)cnn21` [Example 16], with greater than 8.00; and `O=C1CCNc2c1c(C1CCS(=O)(=O)CC1)nc1c(-c3cnc4ccccc4c3)cnn21` [Example 24, 3-(quinolin-3-yl)-5-(tetrahydro-1,1-dioxido-2H-thiopyran-4-yl)-8,9-dihydropyrazolo[1,5-a]pyrido[3,2-e]pyrimidin-6(7H)-one], with 7.00 to 8.00.
Next, `CC(NC1CCOCC1)c1nc2c(-c3cnc4ccc(F)cc4c3)cnn2c2c1C(=O)CCN2` (stereo not drawn) [Example 28, 3-(6-fluoroquinolin-3-yl)-5-(1-(tetrahydro-2H-pyran-4-ylamino)ethyl)-8,9-dihydropyrazolo[1,5-a]pyrido[3,2-e]pyrimidin-6(7H)-one]: less than 7.00; `COc1ccc(-c2ccc(-c3cnn4c5c(c(C6CC7CCC(C6)N7C(=O)C(C)(CO)CO)nc34)C(=O)CCN5)cn2)cc1F` (stereo not drawn) [Example 8]: greater than 8.00; `O=C1CCNc2c1c(N1CCS(=O)(=O)CC1)nc1c(-c3cnc4ccc(F)cc4c3)cnn21` [Example 21]: greater than 8.00.
